We go through nine compounds from PubChem BioAssay (NCI).

Among the test systems are SNB-75 CNS; SF-268 CNS; A498 renal; K-562 leukemia; DU-145 prostate; U251 CNS; SK-MEL-5 melanoma; HCT-15 colon; SK-MEL-28 melanoma; IGROV1 ovarian.
What all share (assay): NCI anticancer screen, dose series, 48 h

Several values for one entry are separate records, joined by “and”; a condition that tells them apart may be missing. Equal entries are not always repeated.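 Interpolation was linear, between the two tested concentrations surrounding the appropriate level; five concentrations were tested over 48 hours in 96-well plates. Here, GI50 denotes the concentration required for 50% inhibition of growth. Definition used: TGI = concentration required for complete inhibition of growth.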 A value given as a limit tells only on which side of the number the result lay.

`COC(=O)[C@]12CC[C@@H](C)[C@H](C)[C@@H]1C1=CC[C@@H]3[C@@](C)(CC#N)C4=C(C[C@@]3(C)[C@]1(C)CC2)OC[C@]4(C)C=O`: the GI50 in the test on SNB-75 CNS was 3.22 µM; in the test with SF-268 CNS, 4.38 µM; with A498 renal, 14.7 µM; in the test with K-562 leukemia it was 3.22 µM; in the test on DU-145 prostate it was 4.78 µM; in the test on U251 CNS it was 3.61 µM. Besides, the GI50 was 3.3 µM in the test with SK-MEL-5 melanoma, 3.1 µM in the test on HCT-15 colon, 4.11 µM with SK-MEL-28 melanoma and 5.28 µM with IGROV1 ovarian. Also, the TGI in the test with SNB-75 CNS was over 100 µM; in the test on SF-268 CNS, over 100 µM; in the test with A498 renal it was 28.7 µM; in the test on K-562 leukemia, over 100 µM; in the test on DU-145 prostate it was over 100 µM; with U251 CNS, 19.2 µM. For the same compound, the TGI in the test with SK-MEL-5 melanoma is 11 µM; with HCT-15 colon it was 23.2 µM; in the test on SK-MEL-28 melanoma, 21.3 µM; with IGROV1 ovarian, over 100 µM.
`CC(C)C1=CC2=C(C(=O)C1=O)C13CCCC(C)(C)C1CC2OC3=O` (stereo not drawn): the TGI with SNB-75 CNS was 63.8 µM; with SF-268 CNS, 55.8 µM; in the test on A498 renal it was 52.2 µM; with K-562 leukemia, 19.7 µM; in the test with DU-145 prostate, 44.9 µM; in the test on U251 CNS, 49.7 µM. The TGI in the test with SK-MEL-5 melanoma stood at 55.1 µM; in the test on HCT-15 colon, 30.7 µM; with SK-MEL-28 melanoma, 31.7 µM; in the test with IGROV1 ovarian, 32.2 µM.
As to `COc1ccc(/C=C\c2cc(OC)c(OC)c(OC)c2)c(NS(=O)(=O)c2ccc(F)cc2)c1O`, the GI50 in the test with SNB-75 CNS was 0.0349 µM; in the test with SF-268 CNS, 0.224 µM; in the test on A498 renal it was 0.0235 µM; with K-562 leukemia, 0.0353 µM; with DU-145 prostate it was 0.039 µM; in the test with U251 CNS, 0.142 µM. The GI50 in the test with SK-MEL-5 melanoma was 0.102 µM; in the test on HCT-15 colon it was 0.0752 µM; with SK-MEL-28 melanoma, 0.484 µM; with IGROV1 ovarian, 0.212 µM. Further, the TGI with SNB-75 CNS was over 100 µM; with SF-268 CNS, over 100 µM; with A498 renal, 0.0966 µM; with K-562 leukemia, over 76 µM; in the test with U251 CNS it was over 100 µM; with SK-MEL-5 melanoma, 0.515 µM. For the same compound, the TGI in the test with HCT-15 colon, in the test with SK-MEL-28 melanoma and in the test with IGROV1 ovarian was over 100 µM each time.
For `COC1C(=O)CCC2(CO2)C1(O)C1(C)OC1CC=C(C)C` (stereo not drawn), the TGI in the test on SNB-75 CNS was over 100 µM; in the test on SF-268 CNS, over 100 µM; in the test on A498 renal, over 100 µM; in the test on K-562 leukemia, 76.3 µM; in the test with DU-145 prostate, over 100 µM; in the test on U251 CNS, over 100 µM. The TGI in the test with SK-MEL-5 melanoma is 83.9 µM; in the test with HCT-15 colon it was over 100 µM; in the test with SK-MEL-28 melanoma, over 100 µM; in the test with IGROV1 ovarian it was over 100 µM.
In the case of `CC1[C@@H]2CC=C3[C@H]4CCC5Cc6nc7c(nc6C[C@@]5(C)C4CC(=O)[C@]32CO[C@]12OC(C)(C)CC2O)CC1CC[C@@H]2C3=C[C@H]4O[C@@]5(O[C@@](C)(CO)C[C@@H]5O)C(C)[C@@]4(O)[C@]3(C)[C@@H](O)CC2[C@]1(C)C7` (stereo partly drawn), the GI50 was 0.000365 µM in the test with SNB-75 CNS; 0.0011 µM and 0.00472 µM in the test with SF-268 CNS; 0.000721 µM in the test on A498 renal; 0.000615 µM and 0.00111 µM in the test on K-562 leukemia; 0.0538 µM with DU-145 prostate; 0.000183 µM and 0.000365 µM with U251 CNS. In addition, the GI50 in the test with SK-MEL-5 melanoma is 0.00235 µM and 0.00215 µM; in the test with HCT-15 colon it was 0.0041 µM and 0.00763 µM; in the test on SK-MEL-28 melanoma, 0.00062 µM; in the test with IGROV1 ovarian, 0.00399 µM and 0.0052 µM. Moreover, the TGI in the test with SF-268 CNS is 0.253 µM and 0.441 µM; in the test on A498 renal it was 0.0187 µM and 0.0124 µM; in the test on K-562 leukemia it was 0.0278 µM and 0.0311 µM; in the test on DU-145 prostate it was 0.716 µM; in the test on U251 CNS, 0.129 µM and 0.0461 µM; with SK-MEL-5 melanoma, 0.022 µM and 0.146 µM. In addition, the TGI in the test on HCT-15 colon was 0.102 µM and 0.129 µM; in the test with SK-MEL-28 melanoma, 0.00273 µM.
Turning to `CC(=O)Nc1cc2c3c(cccc3c1)-c1ccccc1-2`, the GI50 with SNB-75 CNS is over 100 µM; with SF-268 CNS, 8.94 µM; with A498 renal it was 11.6 µM; in the test with K-562 leukemia it was over 100 µM; with DU-145 prostate, 16.3 µM; in the test with U251 CNS, 39.3 µM. Besides, the GI50 in the test with SK-MEL-5 melanoma is over 100 µM; with HCT-15 colon, over 100 µM; in the test on SK-MEL-28 melanoma, over 100 µM; in the test on IGROV1 ovarian, 24.2 µM. The TGI in the test with SNB-75 CNS was over 100 µM; in the test on SF-268 CNS, over 100 µM; in the test on A498 renal it was 28.6 µM; with K-562 leukemia, over 100 µM; in the test on DU-145 prostate, 30.2 µM; in the test with U251 CNS it was over 100 µM. Further, the TGI in the test with SK-MEL-5 melanoma, with HCT-15 colon, in the test with SK-MEL-28 melanoma and in the test with IGROV1 ovarian was over 100 µM in each case.
Consider `Cc1[nH]nc(C(=O)N/N=C/c2ccccc2Cl)c1N=NN(C)C`, for which the TGI in the test with SNB-75 CNS is over 100 µM; with SF-268 CNS, over 100 µM; with A498 renal, over 100 µM; in the test with K-562 leukemia, over 100 µM; in the test on DU-145 prostate it was over 23.4 µM; with U251 CNS, over 100 µM. Moreover, the TGI in the test on SK-MEL-5 melanoma, with HCT-15 colon, with SK-MEL-28 melanoma and in the test with IGROV1 ovarian was over 100 µM throughout.
On to `CN(C)c1ccc(/C=c2/c3cc(O)ccc3n3c2cc(-c2ccccc2)[n+]3C)cc1`, for which the TGI was 1.95 µM in the test on SNB-75 CNS; 1.55 µM with SF-268 CNS; over 100 µM in the test with A498 renal; 6.07 µM in the test on DU-145 prostate; 1.52 µM with U251 CNS; 2.04 µM in the test with SK-MEL-5 melanoma. Further, the TGI with HCT-15 colon is over 100 µM; with SK-MEL-28 melanoma, 2.36 µM; in the test on IGROV1 ovarian, 1.47 µM. In addition, the GI50 with A498 renal was over 100 µM; in the test on K-562 leukemia, 1.01 µM.
Take `CCc1ncc(CO)n1Cc1cccc2ccccc12`: the TGI with SNB-75 CNS, in the test on SF-268 CNS, in the test on A498 renal, in the test on K-562 leukemia, in the test with DU-145 prostate and with U251 CNS was over 100 µM each time. Besides, the TGI in the test on SK-MEL-5 melanoma, in the test on HCT-15 colon, in the test on SK-MEL-28 melanoma and with IGROV1 ovarian was over 100 µM each time.
